Read-outs that look alike come from different tables or passages of the source. Each block holds one compound with its values, some of them ahead of it.
Assays:
[1] = system: Dopamine Aptamer (DNA, aptamer) CGACGCCAGTTTGAAGGTTCGTTCGCAGGTGTGGAGTGACGTCG; settings: 140 mM Na+, 4 mM K+, 2 mM Mg2+; 10 mM phosphate pH 7.4, 25 °C; 200 μM ligand
[2] = system: MA-46 (MA) (DNA, aptamer) CTTACGACTCAGGCATTTTGCCGGGTAACGAAGTTACTGTCGTAAG; assay: ITC; settings: 20 mM Na+, 5 mM Mg2+
[3] = system: SCA2.1 (DNA, aptamer) CTTACGACCTTAAGTGGGGTTCGGGTGGAGTTTATGGGGTCGTAAG; assay: ITC; settings: 20 mM Na+, 0.5 mM Mg2+; 10 mM Tris-HCl pH 7.4, 23 °C; one-site model
[4] = system: MMC1 (DNA, aptamer) CTTACGACCAGGGTTGGTTTCATCGGTGGTGTAATATGGTCGTAAG; assay: ITC; settings: 20 mM Na+, 0.5 mM Mg2+
[5] = system: MMC1-Mutant (DNA, aptamer) CTTACGACCAGGGTTGGTTTCACCGGTGGTGTAATATGGTCGTAAG; assay: ITC; settings: 20 mM Na+, 0.5 mM Mg2+; 10 mM Tris-HCl pH 7.4, 23 °C; 2000 μM ligand in syringe
[6] = system: MMC1-42 (DNA, aptamer) CGACCAGGGTTGGTTTCATCGGTGGTGTAATATGGTCGTAAG; assay: ITC; settings: 20 mM Na+, 0.5 mM Mg2+; 10 mM Tris-HCl pH 7.4, 23 °C; one-site fit, half racemate concentration stated for MMC1 titrations
[7] = system: MMC2 (DNA, aptamer) CTTACGACCAGGGTTGGTCTCATCGGTGGTGTAATATGGTCGTAAG; assay: continuous-injection ITC and exonuclease assay; settings: 20 mM Na+, 0.5 mM Mg2+
[8] = system: MMC3 (DNA, aptamer) CTTACGGCCAGGGTTGGTCTCATCGGTGGTGTAATATGGTCGTAAG; assay: continuous-injection ITC and exonuclease assay; settings: 20 mM Na+, 0.5 mM Mg2+
[9] = system: MMC4 (DNA, aptamer) CTTACGAAGCAGGTGGGTAGGATAGTGTGTGTGCTGTCGTCGTAAG; assay: continuous-injection ITC and exonuclease assay; settings: 20 mM Na+, 0.5 mM Mg2+
[10] = system: MMC5 (DNA, aptamer) CTTACCGACTATATGGGCAGTATCGTCTAGTGCCTAAGGGTCGTAAG; assay: continuous-injection ITC and exonuclease assay; settings: 20 mM Na+, 0.5 mM Mg2+; 10 mM Tris-HCl pH 7.4, 23 °C; 1000 μM ligand in syringe; very weak or no binding
[11] = system: SCA2.1 (DNA, aptamer) CTTACGACCTTAAGTGGGGTTCGGGTGGAGTTTATGGGGTCGTAAG; settings: 20 mM Na+, 0.5 mM Mg2+; 10 mM Tris-HCl pH 7.4, 25 °C; 50 μM ligand
[12] = system: ATP-28 (DNA, aptamer) CTGGGGGAGTATTGCGGAGGAAGGTGCG; assay: ITC; settings: 10 mM Mg2+; 10 mM Tris-HCl pH 7.4, 23 °C; sequential model, site 1 of 2
[13] = system: ATP-33 (DNA, aptamer) CGCACCTGGGGGAGTATTGCGGAGGAAGGTGCG; assay: T5 Exo digestion, PAGE; settings: 10 mM Mg2+; 10 mM Tris-HCl pH 7.4, 25 °C; 250 μM ligand
[14] = system: Dopamine Aptamer (DNA, aptamer) CGACGCCAGTTTGAAGGTTCGTTCGCAGGTGTGGAGTGACGTCG; assay: T5 Exo/Exo I digestion, SYBR Gold fluorescence; settings: 140 mM Na+, 4 mM K+, 2 mM Mg2+; 10 mM phosphate pH 7.4, 25 °C; 200 μM ligand
[15] = system: MA-Mutant (DNA, aptamer) CTTACGACGCAGGCATTTTGCCGGGTAACGAAGTTACTGTCGTAAG; assay: ITC; settings: 20 mM Na+, 5 mM Mg2+
[16] = system: MA-41 (DNA, aptamer) GACTCAGGCATTTTGCCGGGTAACGAAGTTACTGTCGTAAG; assay: ITC; settings: 20 mM Na+, 5 mM Mg2+; 10 mM Tris-HCl pH 7.4, 23 °C; one-site model
[17] = 10 mM Tris-HCl pH 7.4, 23 °C, one-site model
[18] = 10 mM Tris-HCl pH 7.4, 23 °C, 1000 μM ligand in syringe

binding [1]: no
Kd [2, 17]: 103 ± 4 µM
Kd [3]: 24.5 ± 0.9 µM
SMILES: CNC(C)Cc1ccc2c(c1)OCO2 (stereo not drawn)

Kd [2, 17]: 0.6 ± 0.1 µM
SMILES: CN(C)CCCN1c2ccccc2Sc2ccc(Cl)cc21

Kd ([4]; 10 mM Tris-HCl pH 7.4, 23 °C, 10-fold lower affinity than mephedrone, half racemate concentration): 146 ± 34 µM
SMILES: CNC(C)C(=O)c1ccc(OC)cc1 (racemic)

Kd ([4]; 10 mM Tris-HCl pH 7.4, 23 °C, one-site fit with half the racemate concentration): 15 ± 1.3 µM
binding [5]: no
Kd [6]: 6.6 ± 0.7 µM
binding [7]: yes
binding [8]: yes
binding [9]: yes
binding [10]: no
SMILES: CNC(C)C(=O)c1ccc(C)cc1 (racemic)

binding [11]: no
SMILES: COC(=O)[C@H]1[C@@H](OC(=O)c2ccccc2)C[C@@H]2CC[C@H]1N2C

Kd1 [12]: 4.1 ± 0.2 µM
binding [13]: yes
SMILES: Nc1ncnc2c1ncn2[C@@H]1O[C@H](COP(=O)(O)OP(=O)(O)OP(=O)(O)O)[C@@H](O)[C@H]1O

binding [13]: no
SMILES: Nc1ccn([C@@H]2O[C@H](COP(=O)(O)OP(=O)(O)OP(=O)(O)O)[C@@H](O)[C@H]2O)c(=O)n1

Kd [4]: 654 ± 61 µM
SMILES: CNC(C)C(=O)c1ccccc1 (racemic)

Kd [2, 18]: > 1000 µM
SMILES: CCN(CC)CC(=O)Nc1c(C)cccc1C

Kd [4]: 275 ± 17 µM
SMILES: CNC(C)C(=O)c1ccc2c(c1)OCO2 (racemic)

binding [13]: no
SMILES: O=c1ccn([C@@H]2O[C@H](COP(=O)(O)OP(=O)(O)OP(=O)(O)O)[C@@H](O)[C@H]2O)c(=O)[nH]1

binding [14]: no
SMILES: N[C@@H](Cc1ccc(O)cc1)C(=O)O

Kd [3]: 64 ± 3 µM
SMILES: CN[C@@H](C)[C@H](O)c1ccccc1

Kd [2, 17]: 61 ± 2 µM
Kd [4]: 254 ± 22 µM
SMILES: CCNC(C)C(=O)c1ccc2c(c1)OCO2 (racemic)

Kd [4]: > 1000 µM
SMILES: CNC(C)C(=O)c1ccc(F)cc1 (racemic)

binding [11]: no
Kd [2]: > 1000 µM
SMILES: CN[C@@H](C)Cc1ccccc1

binding [11]: yes
Kd [2, 17]: 18.8 ± 1.4 µM
binding [15]: no
Kd [16]: 24.8 ± 0.7 µM
SMILES: CCCC(C(=O)c1ccc2c(c1)OCO2)N1CCCC1 (racemic)

Kd [4, 18]: > 1000 µM
binding [14]: yes
SMILES: NCCc1ccc(O)c(O)c1

binding [13]: no
SMILES: Nc1nc2c(ncn2[C@@H]2O[C@H](COP(=O)(O)OP(=O)(O)OP(=O)(O)O)[C@@H](O)[C@H]2O)c(=O)[nH]1

Kd [2, 17]: 55 ± 2 µM
SMILES: NCCc1c[nH]c2ccc(O)cc12

Kd [4]: > 1000 µM
SMILES: CNC(C)C(=O)c1cccc(C)c1 (racemic)
